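These data come from cells grown in 96-well plates and exposed to compound for 48 hours at five concentrations. GI50 = concentration required for 50% inhibition of growth. TGI denotes the concentration required for complete inhibition of growth.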
How the values were obtained:
Assay in all cases: NCI tumour cell line growth inhibition, 48 h
[1] = test system: SK-OV-3 ovarian
[2] = test system: MALME-3M melanoma
[3] = test system: TK-10 renal
[4] = test system: CCRF-CEM leukemia
[5] = test system: SW-620 colon
[6] = test system: NCI-H460 lung
[7] = test system: M14 melanoma
[8] = test system: U251 CNS
[9] = test system: MDA-MB-435
[10] = test system: HCT-116 colon

| SMILES | TGI [1] [µM] | TGI [2] [µM] | TGI [3] [µM] | TGI [4] [µM] | TGI [5] [µM] | TGI [6] [µM] | TGI [7] [µM] | GI50 [1] [µM] | GI50 [3] [µM] | GI50 [4] [µM] | GI50 [5] [µM] | GI50 [6] [µM] | GI50 [8] [µM] | TGI [8] [µM] | GI50 [9] [µM] | TGI [9] [µM] | TGI [10] [µM] | GI50 [2] [µM] | GI50 [7] [µM] | GI50 [10] [µM] |
| --- | --- | --- | --- | --- | --- | --- | --- | --- | --- | --- | --- | --- | --- | --- | --- | --- | --- | --- | --- | --- |
| O=C(Cc1nc2ccccc2s1)Nc1cccc(C(F)(F)F)c1 | 44.3 | 30.8 | 36.1 | 4.79 | 43.2 | 41.4 | 31.2 |  |  |  |  |  |  |  |  |  |  |  |  |  |
| O=[N+]([O-])c1c(Br)sc(Br)c1[N+](=O)[O-] | 27 |  | 6.18 | 4.15 | 3.27 | 28.1 |  | 14 | 2.31 | 1.11 | 1.6 | 6.67 | 2.15 | 5.46 | 2 | 5.28 |  |  |  |  |
| NCCCNCCCCN(CCCN)/[N+]([O-])=N\O |  | > 100 |  | > 100 | > 100 | > 100 | > 100 |  |  |  |  |  |  |  |  |  | > 100 |  |  |  |
| COc1ccc(/C=c2\sc3n(c2=O)C(N)=C(C#N)C(c2ccc(OC)cc2)C=3c2nc3ccccc3[nH]2)cc1 (centres undefined) |  | 42.2 | 66.5 | > 100 | 83.6 | 40.9 | > 100 |  |  |  |  |  |  | 34.4 |  |  | 64.1 |  |  |  |
| Clc1ccc(C2SCc3nc4ccccc4n32)cc1Cl (centres undefined) | 36.2 | 42.5 | 25.9 | > 100 | 28.6 | 28.1 | 27.2 |  |  |  |  |  |  | 30.8 |  |  | 26.2 |  |  |  |
| CCCCCCCCCCCCCP(=O)(O)OCC |  | > 100 | > 100 | > 100 | > 100 | > 100 | > 100 |  |  |  |  |  |  | > 100 |  |  | > 100 |  |  |  |
| CN(C)c1ccc(Nc2cc(-c3cccc(OC(F)(F)F)c3)nc3ccc(N4CCCC4)cc23)cc1 | 25.7 | 3.11 | 3.3 |  |  | 3.66 | 3.32 | 13.1 | 1.84 |  |  | 1.92 | 1.74 | 3.16 | 1.82 | 3.37 |  | 1.66 | 1.7 |  |
| COc1ccc(-c2nc3ccccn3c2/C=C/C(=O)c2cc(OC)c(OC)c(OC)c2)cc1 | > 100 |  | > 100 | > 100 | > 100 | 31 | 28.6 | 14.8 | 4.16 | 18.8 | 4.16 | 4.09 | 3 | 30.6 | 5.76 | 27.6 | 11.1 |  | 9.8 | 2.26 |
| C=C(Br)N(CC)CC | > 100 | > 100 | > 100 | > 100 | > 100 | > 100 | > 100 |  |  |  |  |  |  | > 100 |  |  | > 100 |  |  |  |
| C1=CC=C2NCCCNC3=CC=CC=CC3=NCCCN=C2C=C1 | > 100 |  | > 100 | > 100 | > 100 | > 100 | > 100 |  |  |  |  |  |  | > 100 |  |  | > 100 |  |  |  |
| O=C(Nc1ccccc1)NS(=O)(=O)c1ccc(-n2nc3c(c2-c2ccc(Cl)cc2)Cc2ccccc2-3)cc1 | > 100 |  | 74.4 | 10.2 | 55.4 | 85.1 | > 100 | 53.9 | 18.3 | 3.21 | 23 | 22.3 | 22.3 | 63.2 | 16.8 | 52.7 | > 100 |  | 34.5 | 22.5 |
| COC(=O)CCC(=O)CC(=O)C(=O)Nc1c(Cl)cc([N+](=O)[O-])cc1Cl | > 100 | > 100 | > 100 | > 100 |  | > 100 | > 100 |  |  |  |  |  |  | > 100 |  |  | > 100 |  |  |  |
| CCc1cccc(C(C)C)c1NC(=O)C(=O)C(CC(=O)Nc1ccc(Cl)c(Cl)c1)C(=O)OC (centres undefined) | > 100 | > 100 | > 100 | > 100 | 24.6 | > 100 | > 100 |  |  |  |  |  |  | > 100 |  |  | > 100 |  |  |  |
| C[C@]1(CO)CCC[C@@]2(C)C1CC[C@H]1CC3C[C@]12CC[C@]3(C)O (some centres undefined) | > 100 | > 100 | > 100 |  | > 100 | 36.8 | > 100 |  |  |  |  |  |  | > 100 |  |  | > 100 |  |  |  |
| CC(C)CCN=C(N)c1ccc(N2CCN(c3ccc(C(N)=NCCC(C)C)cc3)CC2)cc1 | 25.5 |  | 89.9 | 26.4 | 91.2 | 49.3 | 29.6 | 4.45 | 9.08 | 6.37 | 15.1 | 14.5 | 13.9 | 32.9 | 9.76 | 24.2 | 33.5 |  | 11.7 | 9.52 |
| CCOC(=O)C1=C(C)N(c2ccc(C)cc2)C2=C(C(=O)N(c3ccccc3)C2c2ccccc2)C1c1ccccc1 (centres undefined) |  | > 25 | > 25 | > 25 | > 25 | > 25 | > 25 |  |  |  |  |  |  | > 25 |  |  | > 25 |  |  |  |
| CN(C)CCNC(=O)c1cccc2c1nc(-c1ccccc1)c1ccccc12 | 19.6 |  | 14.4 | 10.1 | 15.5 | 13.3 | 4.34 |  |  |  |  |  |  | 18.4 |  |  | 13 |  |  |  |
| Cc1cc(C)nc(NS(=O)(=O)c2ccc(Nc3c4ccc(Cl)cc4nc4c(C(=O)Nc5ccc(S(N)(=O)=O)cc5)cccc34)cc2)n1 | 30.5 | > 100 | 89.6 | > 100 |  | 60.8 | 34.7 |  |  |  |  |  |  | 28.7 |  |  | 30.2 |  |  |  |
| O=C(CCC(=O)C(C(=O)c1ccccc1)c1ccccc1)Nc1cccc(C(F)(F)F)c1 (centres undefined) | > 100 | > 100 | > 100 | > 100 | > 100 | > 100 | > 100 |  |  |  |  |  |  | > 100 |  |  | > 100 |  |  |  |
| COc1cc2c3c(c1OC)-c1c(ccc4c1OCO4)CC3(C#N)N(C(=O)c1ccccc1)CC2 (centres undefined) | > 100 | > 100 | > 100 | > 100 | > 100 | > 100 | > 100 |  |  |  |  |  |  | > 100 |  |  | > 100 |  |  |  |

Source: PubChem BioAssay (NCI)
